Reference: publication PMC13114161 (Antibiotics, 2026)
Read-outs that look alike come from different tables or passages of the source.

Key:
[1] = tested on: multidrug-resistant P. aeruginosa clinical isolates from Walter Reed Army Hospital; assay: Levofloxacin MIC potentiation, WRAIR MRSN isolates; assay type: cell-based, Pseudomonas aeruginosa
Experimental: (§1) MIC assays for potentiation of antimicrobial activity against P. aeruginosa were performed as described previously.

[2] = tested on: multidrug-resistant P. aeruginosa clinical isolates from the CDC-FDA; assay: Levofloxacin MIC potentiation, CDC-FDA isolates; assay type: cell-based, Pseudomonas aeruginosa; details: for Levofloxacin MIC fold difference, +EPI / Levofloxacin MIC, +EPI: EPI […] (TXA11114, TXA09155) or 50 μg/mL (MC-04,124, PAβN)
Experimental: In a comparative study, the levofloxacin-potentiating activity of TXA11114 was evaluated alongside the well-characterized EPIs PAβN and MC-04,124 using P. aeruginosa clinical isolates obtained from the CDC and FDA Antimicrobial Resistance Isolate Bank and the Walter Reed Army Institute of Research (WRAIR). […] While PAβN has been widely studied in laboratory strains, its activity against the CDC/FDA P. aeruginosa panel has been reported only sparingly, limiting direct cross-study comparisons.
as §1

[3] = Maximum tolerated dose; details: female, CD-1, mouse, iv
Experimental: Thus, the safety and tolerability of TXA11114 was determined to find an optimum dosing capability. The maximum tolerated dose (MTD) of TXA11114 was assessed in female mice (CD-1, 6–8 weeks old) at the University of North Texas Health Science Center (UNTHSC). TXA11114 was administered IV to groups of three female mice. Mice were administered TXA11114 in the range 30–240 mg/kg (IV bolus). […] As doses are tolerated (not resulting in effects such as mortality, convulsions, or other severe morbidity), they are increased. Survival and general observations as to the tolerability of the administered dose started immediately and continued for a period of 48 h after each dose was recorded.

[4] = tested on: P. aeruginosa DA7232 (gyrA-T83I, parC-S80L); assay: Levofloxacin MIC potentiation; assay type: cell-based, Pseudomonas aeruginosa; details: DA7232; […] TXA11114
Experimental: as §1

[5] = tested on: P. aeruginosa ATCC 27853; assay: MIC and levofloxacin potentiation (broth microdilution); assay type: cell-based, Pseudomonas aeruginosa; details: for MIC: Pseudomonas aeruginosa, ATCC27853
[6] = tested on: P. aeruginosa; assay: Effect of inoculum on levofloxacin potentiation (MIC); assay type: cell-based, Pseudomonas aeruginosa
Experimental: as §1

[7] = tested on: P. aeruginosa ATCC 27853; assay: Neutropenic murine thigh infection model; assay type: in vivo, CD-1 mice
Experimental: Female CD-1 mice (6–8 weeks old; 22 ± 2 g) were obtained from Envigo Laboratories, quarantined for at least 3 days, and housed 5 per cage in accordance with the approved IACUC protocol (IACUC-2017-0049). Neutropenia was induced by intraperitoneal (IP) administration of cyclophosphamide (Cytoxan) at 150 mg/kg on day 4 and 100 mg/kg on day 1 prior to infection.
Mice were infected intramuscularly (IM) in the right thigh with 0.1 mL of bacterial suspension containing approximately 1 × 10^5–10^6 CFU/mL. […] At 2 h or 24 h post-infection, mice were euthanized by CO2 asphyxiation, and thighs were aseptically excised and placed in 2 mL sterile phosphate-buffered saline (PBS) on ice. Tissue homogenization was performed using a Polytron PT10-35 (12 mm aggregate, Kinematica, Malters, Switzerland).
Plates were incubated overnight at 37 °C, and colonies were enumerated the following day.

[8] = combined CDC/FDA and WRAIR MDR isolate sets
[9] = +24 hr, TXA11114 30 mg/kg IV QID alone

NCC(F)C[C@@H](N)CNC(=O)c1cc2ccc(-c3ccc(F)cc3)cc2[nH]1 (stereo partly drawn) [TXA11114, N-((2R)-2,5-diamino-4-fluoropentyl)-6-(4-fluorophenyl)-1H-indole-2-carboxamide]
Levofloxacin MIC reductions across panel ([1]; 20 MRSN isolates, + TXA11114 […]): 2- to 32 fold | Share of isolates shifted to levofloxacin susceptibility ([1]; 20 highly MDR MRSN isolates, + TXA11114): 65% | Levofloxacin MIC fold difference, +TXA11114 ([1]; MRSN #994): 8 fold | Levofloxacin MIC, +TXA11114 ([1]; MRSN #994): 2 µg/mL | Levofloxacin MIC, +TXA11114 ([1]; MRSN #1344): 0.25 µg/mL | Levofloxacin MIC fold difference, +TXA11114 ([1]; MRSN #3587): 8 fold | Levofloxacin MIC, +TXA11114 ([1]; MRSN #3587): 1 µg/mL | Levofloxacin MIC fold difference, +TXA11114 ([1]; MRSN #3705): 32 fold | Levofloxacin MIC, +TXA11114 ([1]; MRSN #3705): 0.25 µg/mL | Levofloxacin MIC fold difference, +TXA11114 ([1]; MRSN #5498): 8 fold | Levofloxacin MIC, +TXA11114 ([1]; MRSN #5498): 4 µg/mL | Levofloxacin MIC fold difference, +TXA11114 ([1]; MRSN #5519): 16 fold | Levofloxacin MIC, +TXA11114 ([1]; MRSN #5519): 4 µg/mL | Levofloxacin MIC fold difference, +TXA11114 ([1]; MRSN #5539): 2 fold | Levofloxacin MIC, +TXA11114 ([1]; MRSN #5539): 8 µg/mL | Levofloxacin MIC fold difference, +TXA11114 ([1]; MRSN #6220): 16 fold | Levofloxacin MIC, +TXA11114 ([1]; MRSN #6220): 8 µg/mL | Levofloxacin MIC fold difference, +TXA11114 ([1]; MRSN #6241): 4 fold | Levofloxacin MIC, +TXA11114 ([1]; MRSN #6241): 2 µg/mL | Levofloxacin MIC fold difference, +TXA11114 ([1]; MRSN #6678): 8 fold | Levofloxacin MIC, +TXA11114 ([1]; MRSN #6678): 4 µg/mL | Levofloxacin MIC fold difference, +TXA11114 ([1]; MRSN # 6695): 16 fold | Levofloxacin MIC, +TXA11114 ([1]; MRSN # 6695): 0.5 µg/mL | Levofloxacin MIC fold difference, +TXA11114 ([1]; MRSN #8130): 8 fold | Levofloxacin MIC, +TXA11114 ([1]; MRSN #8130): 2 µg/mL | Levofloxacin MIC fold difference, +TXA11114 ([1]; MRSN #8139): 8 fold | Levofloxacin MIC, +TXA11114 ([1]; MRSN #8139): 1 µg/mL | Levofloxacin MIC fold difference, +TXA11114 ([1]; MRSN #8912): 8 fold | Levofloxacin MIC, +TXA11114 ([1]; MRSN #8912): 2 µg/mL | Levofloxacin MIC fold difference, +TXA11114 ([1]; MRSN #8914): 8 fold | Levofloxacin MIC, +TXA11114 ([1]; MRSN #8914): 2 µg/mL | Levofloxacin MIC fold difference, +TXA11114 ([1]; MRSN #8915): 2 fold | Levofloxacin MIC, +TXA11114 ([1]; MRSN #8915): 64 µg/mL | Levofloxacin MIC fold difference, +TXA11114 ([1]; MRSN #14981): 16 fold | Levofloxacin MIC, +TXA11114 ([1]; MRSN #14981): 1 µg/mL | Levofloxacin MIC fold difference, +TXA11114 ([1]; MRSN #15566): 32 fold | Levofloxacin MIC, +TXA11114 ([1]; MRSN #15566): 0.25 µg/mL | Levofloxacin MIC fold difference, +TXA11114 ([1]; MRSN #16344): 16 fold | Levofloxacin MIC, +TXA11114 ([1]; MRSN #16344): 0.5 µg/mL | Levofloxacin MIC fold difference, +TXA11114 ([1]; MRSN #369569): 8 fold | Levofloxacin MIC, +TXA11114 ([1]; MRSN #369569): 4 µg/mL | Levofloxacin MIC fold difference, +EPI ([2]; AR-0229): 32 fold | Levofloxacin MIC, +EPI ([2]; AR-0229): 2 µg/mL | Levofloxacin MIC fold difference, +EPI ([2]; AR-0232): 16 fold | Levofloxacin MIC, +EPI ([2]; AR-0232): 0.5 µg/mL | Levofloxacin MIC fold difference, +EPI ([2]; AR-0233): 8 fold | Levofloxacin MIC, +EPI ([2]; AR-0233): 0.5 µg/mL | Levofloxacin MIC fold difference, +EPI ([2]; AR-0234): 32 fold | Levofloxacin MIC, +EPI ([2]; AR-0234): 0.25 µg/mL | Levofloxacin MIC fold difference, +EPI ([2]; AR-0239): 4 fold | Levofloxacin MIC, +EPI ([2]; AR-0239): 8 µg/mL | Levofloxacin MIC fold difference, +EPI ([2]; AR-0242): 4 fold | Levofloxacin MIC, +EPI ([2]; AR-0242): 2 µg/mL | Levofloxacin MIC fold difference, +EPI ([2]; AR-0244): 8, (8) fold | Levofloxacin MIC, +EPI ([2]; AR-0244): 8, (8) μg/mL | Levofloxacin MIC fold difference, +EPI ([2]; AR-0246): 8, (8) fold | Levofloxacin MIC, +EPI ([2]; AR-0246): 8, (8) μg/mL | Levofloxacin MIC fold difference, +EPI ([2]; AR-0248): 8 fold | Levofloxacin MIC, +EPI ([2]; AR-0248): 2 µg/mL | Levofloxacin MIC fold difference, +EPI ([2]; AR-0249): 16 fold | Levofloxacin MIC, +EPI ([2]; AR-0249): 4 µg/mL | Levofloxacin MIC fold difference, +EPI ([2]; AR-0252): 8 fold | Levofloxacin MIC, +EPI ([2]; AR-0252): 4 µg/mL | Levofloxacin MIC fold difference, +EPI ([2]; AR-0253): 16 fold | Levofloxacin MIC, +EPI ([2]; AR-0253): 0.125 µg/mL | Levofloxacin MIC fold difference, +EPI ([2]; AR-0264): 16 fold | Levofloxacin MIC, +EPI ([2]; AR-0264): 4 µg/mL | Share of CDC isolates with levofloxacin MIC reduced ≥8-fold (potentiated) ([2]; TXA11114 […], PAβN and MC-04,124 50 µg/mL): approximately 85% | Share of isolates in which levofloxacin was potentiated [2, 8]: > 90% | Share of strains restored to levofloxacin susceptibility at or below EUCAST breakpoint (≤2 μg/mL) [2, 8]: approximately 60% | Reductions in levofloxacin MIC values in many strains ([2]; diverse MDR clinical isolates): 4- to 32 fold | MTD at 48 h ([3]; in vivo, Maximum tolerated dose (MTD), mice, IV bolus for TXA11114): < 90 mg/kg | MTD at 48 h [3]: > 60 mg/kg | Levofloxacin MIC in presence of TXA11114 [4]: 1 µg/mL | Fold MIC reduction [LVX/EPI-LVX] ([5]; EPI at […], ATCC 27853): 8 fold | MIC ([5]; ATCC 27853 parent strain (Table S1), read-out: MIC): 100 µg/mL | MIC ([5]; EPI alone, ATCC 27853, read-out: EPI MIC): 100 µg/mL | LVX MIC (+EPI) ([5]; levofloxacin MIC with EPI at […], ATCC 27853): 0.125 µg/mL | LVX MIC ([6]; OD600 0.001, TXA11114 25 μg/mL): 0.031 µg/mL | LVX MIC fold difference ([6]; OD600 0.001, TXA11114 25 μg/mL): 32 fold | LVX MIC ([6]; OD600 0.001, TXA11114 50 μg/mL): 0.008 µg/mL | LVX MIC fold difference ([6]; OD600 0.001, TXA11114 50 μg/mL): 128 fold | LVX MIC ([6]; OD600 0.025, TXA11114 25 μg/mL): 0.063 µg/mL | LVX MIC fold difference ([6]; OD600 0.025, TXA11114 25 μg/mL): 32 fold | LVX MIC ([6]; OD600 0.025, TXA11114 50 μg/mL): 0.031 µg/mL | LVX MIC fold difference ([6]; OD600 0.025, TXA11114 50 μg/mL): 64 fold | Minimal potentiation concentration (MPC) ([6]; standard broth microdilution inoculum): 6.25 µg/mL | Effect of EPI alone on bacterial burden, thigh ([7]; 30 mg/kg, IV, QID): had no impact on bacterial burden | Mean Log10 CFU (thigh) [7, 9]: 8.95 log10 CFU | Mean Log10 CFU Change vs +2 hr Control, Δlog10 (treatment-baseline), thigh [7, 9]: 2.87 log10 CFU | Mean Log10 CFU Change vs +24 hr Control, thigh ([7]; TXA11114 30 mg/kg IV QID alone): 0.13 log10 CFU | CFU reduction by combination, exceeding levofloxacin alone ([7]; murine thigh and lung infection models): > 1 log10 CFU
